In data set [1] the test system is SARS-CoV-2. Particulars: 10 μM; cited from earlier work.
For another data set, the system named is non-senescent BV2 cells. The experiment in a line: Viability of non-senescent BV2 cells, sulforhodamine B (SRB) assay. Format: cell-based. The settings on record: 48 h exposure, masitinib 0.1-2 μM and/or isoquercetin 1-20 μM. As for the experimental part:
(§1) BV2 cells are retroviral-immortalized microglia-like cells, which are used as a model for cellular senescence. BV2 cells were cultured in Dulbecco's modified Eagle's medium supplemented with 10% heat-inactivated fetal bovine serum (hiFBS) and plated in 6-well multiwell plates for treatment and flow cytometry analysis.
(§2) For cellular viability analysis of non-senescent cells (BV2 cells) and senescent cells (BV2 cells pretreated with TMZ), cells were plated in 96-well multiwell plates during 72 hours. […] After 48 hours of treatment, cell viability was analyzed by sulforhodamine B (SRB) assay. The optical density (OD) of each well was read in a 96-well plate reader at 540 nm. The OD of the SRB solution is directly proportional to the cell number.

The subject of a further data set is senescent BV2 cells. The experiment in a line: Viability of senescent BV2 cells (pretreated with TMZ), SRB assay. Format: cell-based. The settings on record: for cell viability of senescent BV2 cells, single agent: single agent below the high concentrations (2 μM masitinib, 20 μM isoquercetin). As for the experimental part:
as §1
BV2 cells were treated with temozolomide (TMZ), an alkylating agent inducing DNA damage, in order to induce senescence of the cells. For senescence induction studies, cells were plated and treated twice with increasing doses (10-150 μM) of TMZ during 5 hours every 24 hours. After exposure of BV2 cells to two successive treatments with TMZ, their proliferation was reduced and the cells developed a characteristic senescent phenotype with enlarged size and flat-granulated shape. The senescent phenotype of BV2 cells after TMZ-induced genotoxicity was further confirmed by measuring the number of cells displaying β-gal activity, a well-recognized marker of cellular senescence. After the second TMZ-treatment, flow cytometry analysis was thus carried out using a 5-Dodecanoylaminofluorescein Di-β-D-Galactopyranoside (C12FDG) kit to measure β-galactosidase activity by the alkalinization of lysosomes as described by the manufacturer's instructions (Thermo Fisher Scientific, #D2893). TMZ induced a dose-dependent increase in the number β-gal+ cells. Up to 60% of β-gal+BV2 cells, i.e., senescent cells, were obtained at a TMZ concentration of 100 μM (data not shown).
as §2
In general terms: Sulforhodamine B stains cellular protein and so reports cell mass.

Data set [2] concerns OC43. The experiment in a line: Drug repurposing screen, OC43 nucleoprotein staining in A549-mRuby cells. It is filed as cell-based, human beta coronavirus OC43 (HCoV-OC43). Particulars: for % staining of OC43: normalized to no-drug controls in the same plate. How it is done: (§3) Cells were seeded in a final volume of […] with DMEM+10% BCS. […] All the following steps were performed at room temperature. […] The screen was performed twice.

A further data set relates to A549-mRuby cells. The experiment in a line: Cell growth in the drug screen (cell numbers day 4 / day 0). It is filed as cell-based, human. As for the experimental part: as §3
Data set [3] deals with OC43. The experiment in a line: Dose-response analysis of OC43 infection in A549-mRuby cells. It is filed as cell-based, human beta coronavirus OC43 (HCoV-OC43). Particulars: Betacoronavirus 1, OC43, A549, 48 h, read-out: EC50 against OC43 infection. How it is done: Dose-response analysis of OC43 infection was done similarly to the drug screening, except cells were seeded at a concentration of 5,000 cells per well and the media contained 2% BCS instead of 10% BCS. OC43 staining was performed 2 days after infection and analyzed similarly to what was described for the drug screening. A sigmoid fit was used to extract EC50 values using Matlab.

Data set [4] deals with OC43. The experiment in a line: OC43 replication in primary human airway epithelial cells. Particulars: Betacoronavirus 1, OC43, Epithelial cell, read-out: EC50, inhibition of OC43 replication. It is filed as cell-based, human beta coronavirus OC43 (HCoV-OC43).
Data set [5] relates to SARS-CoV-2. The experiment in a line: SARS-CoV-2 progeny production, plaque titers on Vero E6 cells. Particulars: 10 μM; for decrease of SARS-CoV-2 progeny production: 2 h pre-treatment, MOI 0.5, supernatant 2 days. Format: cell-based. As for the experimental part:
For SARS-CoV-2 plaque titers, cell supernatants from the infection described above were serially diluted (10-fold steps were used) and used to infect Vero E6 cells for 1 hour. Inoculum was removed and 1.25% methylcellulose DMEM solution was added to the cells and incubated for 3 days. Plates were fixed in 1:10 formalin for 1 hour, stained with crystal violet for 1 hour and were counted to determine plaque forming units (PFU)/ml.

A further data set has as its system coxsackievirus B3 (CVB3). The experiment in a line: Picornavirus infection of Huh7 cells, plaque titration. Format: cell-based. Particulars: 10 M [sic] masitinib, MOI 0.01, 24 h. As for the experimental part:
(§4) Prior to infection, Huh7 cells were pretreated for two hours. Virus was diluted using serum-free DMEM (SFM) to achieve an MOI of 0.01. Cell supernatants (collected at 24 hours post infection) were dilutions in SFM and used to inoculate Vero cells for 10-15 min at 37 C. Cells were incubated for 2 days at 37 C after overlaying them DMEM containing 2% NBCS and 0.8% agarose. […] The number of plaque forming units (PFU/per milliliter) were then calculated.

Data set [6] concerns human rhinovirus 14 (HRV14). The data set is described as above. It is filed as cell-based. The settings on record: 10 M [sic] masitinib, MOI 0.01, 24 h. As for the experimental part:
as §4

The subject of data set [7] is human rhinovirus 16 (HRV16). The description is as above. It is filed as cell-based. Particulars: 10 M [sic] masitinib, MOI 0.01, 24 h. How it is done: as §4
Data set [8] has as its system human rhinovirus 2 (HRV2). The data set is described as above. It is filed as cell-based. Particulars: 10 M [sic] masitinib, MOI 0.01, 24 h. How it is done:
as §4

A further data set has as its system influenza A virus (IAV). The experiment in a line: Influenza A infection of MDCK-SIAT1-TMPRSS2 cells. Format: cell-based, Influenza A/Puerto Rico/8/1934 (PR8). The settings on record: 10 μM, n=3, p>0.07. As for the experimental part:
MDCK-SIAT1-TMPRSS2 cells were infected with Influenza A/Puerto Rico/8/1934 (PR8) at an MOI of 0.01 TCID50/cell. Following a 1 hour adsorption, virus was removed and the cells were washed. […] Supernatants were harvested and clarified at 20 hours post infection. The supernatants were titrated using TCID on MDCK-SIAT1-TMPRSS2 cells.

The test system of a further data set is measles virus (MeV). The experiment in a line: Measles virus inhibition assay in Vero cells, luciferase. Particulars: 10 μM, n=3, p>0.07. It is filed as cell-based. As for the experimental part:
Vero cells were infected with a luciferase-expressing measles virus at an MOI of 0.01 for 90 minutes. The inoculum was removed and added fresh medium containing masitinib or DMSO to the cells for further culture. Three days later, firefly luciferase activity was measured by adding 0.5 mM of D-Luciferin to each well and was quantified with an Infinite M200 Pro multimode microplate reader.

Data set [9] relates to lymphocytic choriomeningitis virus (LCMV). It is filed as cell-based. The settings on record: 10 μM, n=2, p>0.07.
Data set [10] deals with Chikungunya virus (CHIKV). The experiment in a line: Chikungunya virus infection. Format: cell-based. Particulars: 10 μM, n=3, p>0.07.
In data set [11] the test system is SARS-CoV-2. The experiment in a line: SARS-CoV-2 intranasal challenge of K18-hACE2 mice. Particulars: bid, ip, vs PBS; for clinical score: 1-6 days post infection.
The target in data set [12] is picornaviruses 3C protease (Coxsackievirus B3, UniProt P03313). The experiment in a line: 3C protease activity assay, luciferase reporter in Huh7 cells. Particulars: n=6, p-value=7×10-6. (A reporter such as luciferase makes a cellular process visible.)
picornaviruses 3C protease, sequence (P03313 1541-1723 limits assumed): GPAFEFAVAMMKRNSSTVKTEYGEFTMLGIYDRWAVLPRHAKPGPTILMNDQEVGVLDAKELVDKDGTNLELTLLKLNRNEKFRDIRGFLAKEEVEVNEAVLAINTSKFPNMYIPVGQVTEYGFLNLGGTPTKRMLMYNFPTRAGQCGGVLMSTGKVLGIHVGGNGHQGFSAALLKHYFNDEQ
Where [13] appears, read: 25 or 50 mg/kg, 4 and 6 days post infection.

The term EC50 denotes the concentration that produces a half-maximal response.

Take `O=CC(CC1CCNC1=O)NC(=O)C(CC1CCCCC1)NC(=O)c1cc2ccccc2[nH]1` (stereo not shown) [11a]: the “inhibition of SARS-CoV-2 progeny production” value in the data set on SARS-CoV-2 [1] is 2 logs.

`O=CC(CC1CCNC1=O)NC(=O)C(Cc1cccc(F)c1)NC(=O)c1cc2ccccc2[nH]1` (stereo not shown) [11b]: in the data set on SARS-CoV-2 [1], the “inhibition of SARS-CoV-2 progeny production” value is 2 logs.

In the case of `O=c1c(O[C@@H]2O[C@H](CO)[C@@H](O)[C@H](O)[C@H]2O)c(-c2ccc(O)c(O)c2)oc2cc(O)cc(O)c12` [isoquercetin, 2-(3,4-dihydroxyphenyl)-5,7-dihydroxy-3-[(2S,3R,4S,5S,6R)-3,4,5-trihydroxy-6-(hydroxymethyl)oxan-2-yl]oxychromen-4-one], the “cell viability of non-senescent proliferating BV2 cells” value in the data set with non-senescent BV2 cells is given as “no significant change in cell viability”. Also, the cytotoxicity at 20 µM with senescent BV2 cells (Mus musculus, BV-2, 20 μM isoquercetin alone, 48 h, TMZ-induced senescent BV2 cells, read-out: reduction in senescent cell viability) is approximately 25%. Moreover, the “cell viability of senescent BV2 cells, single agent” value in the data set on senescent BV2 cells was “modest reduction in cell viability”.

In the case of `Cc1ccc(NC(=O)c2ccc(CN3CCN(C)CC3)cc2)cc1Nc1nc(-c2cccnc2)cs1` [masitinib, 4-(4-methylpiperazin-1-ylmethyl)-N-[4-methyl-3-(4-pyridin-3ylthiazol-2-ylamino)phenyl]benzamide], the “cell viability of non-senescent proliferating BV2 cells” value in the data set on non-senescent BV2 cells is “no significant change in cell viability”. For the same molecule, in the data set with senescent BV2 cells (Mus musculus, BV-2, 48 h, read-out: reduction in senescent cell viability), the cytotoxicity at 2 µM was approximately 25%. The “cell viability of senescent BV2 cells, single agent” value with senescent BV2 cells is on record as “modest reduction in cell viability”. In the data set with OC43 [2] (mean of two screen repeats, normalized to no-drug controls (=100), drug at 10 PM as printed, day 4), the “mean % staining of OC43” value was 12.2%. Moreover, the “% staining of OC43” value with OC43 [2] (screen repeat #1) is on record as 14.4%; with OC43 [2] (screen repeat #2) it was 10.1%. Moreover, the “number of cells at day 4 divided by number of cells at day 0” value is 4.3 in the data set on A549-mRuby cells (screen repeat #1) and 4.7 in the data set with A549-mRuby cells (screen repeat #2). The results for the 50% effective concentration (EC50) in the data set with OC43 [3] and in the data set on OC43 [4] were 2.1 µM and 0.58 µM, respectively. The “decrease of SARS-CoV-2 progeny production” value with SARS-CoV-2 [5] is reported as “over 5 logs”; in the data set on SARS-CoV-2 [5] (listed as Masitinib), more than 5 logs. For the same molecule, the “reduction in viral titers (SARS-CoV-2 progeny)” value in the data set on SARS-CoV-2 [5] (n=3, p<0.001) is on record as “statistically significant”. The “replication of coxsackievirus B3 (CVB3)” value with coxsackievirus B3 (CVB3) is reported as “effective in blocking the replication”. For the same molecule, the “replication of human rhinovirus 14 (HRV14)” value in data set [6] is reported as “effective in blocking the replication”. Moreover, the “replication of human rhinovirus 16 (HRV16)” value in data set [7] is recorded as “effective in blocking the replication”. Also, in data set [8], the “replication of human rhinovirus 2 (HRV2)” value was “effective in blocking the replication”. Also, the “effect on cells infected by influenza A virus (IAV)” value in the data set with influenza A virus (IAV) was “did not show a significant effect”. In the data set on measles virus (MeV), the “effect on cells infected by measles virus (MeV)” value was “did not show a significant effect”. In data set [9], the “effect on cells infected by lymphocytic choriomeningitis virus (LCMV)” value is on record as “did not show a significant effect”. In data set [10], the “effect on cells infected by Chikungunya virus (CHIKV)” value was “did not show a significant effect”. The clinical score result in the data set on SARS-CoV-2 [11] (25 mg/kg) and in the data set on SARS-CoV-2 [11] (50 mg/kg) was “significant decrease” throughout. Besides, the “SARS-CoV-2 viral load in the lung” value in the data set on SARS-CoV-2 [11] (setting [13]) is listed as “significant decrease”. The “SARS-CoV-2 viral load in the nasal turbinates” value with SARS-CoV-2 [11] (setting [13]) is “significant decrease”. The “activity of the 3C protease in cells” value in [12] is listed as “significantly inhibited”.

Source of the values: patent US20230226043A1 (priority 2020, published 2023).
